# Reference: US11453683B1, “KRas G12D inhibitors” (Mirati Therapeutics, Inc., priority 2019, dated 2022)
# System: KRas G12D-mediated phosphorylation of ERK
# Experiment: Inhibition of KRas G12D-mediated phosphorylation of ERK in AGS cells
# Type: cell-based
# Settings: Homo sapiens; AGS cells expressing G12D, 3 hours, phospho-ERK normalized to GAPDH
# Description: Cells were plated in tissue culture treated 96 well plates at a density of 40,000 cells/well and allowed to attach for 12-14 hours. Diluted compounds were then added in a final concentration of 0.5% DMSO. After 3 hours, the medium was removed, 150 μL of 4.0% formaldehyde was added and the plates incubated at room temperature for 20 minutes. The plates were washed with PBS, and permeabilized with 150 μL of ice cold 100% methanol for 10 minutes. Non-specific antibody binding to the plates was blocked using 100 μL Licor blocking buffer (Li-Cor Biotechnology, Lincoln Nebr.) for 1 hour at room temperature.
# The amount of phospho-ERK was determined using an antibody specific for the phosphorylated form of ERK and compared to the amount of GAPDH. Primary antibodies used for the detection were added as follows: Phospho-ERK (Cell Signaling cs-9101) diluted 1:500 and GAPDH (Millipore MAB374) diluted 1:5000 in Licor block+0.05% Tween 20. The plates were incubated for 2 hours at room temperature. The plates were washed with PBS+0.05% Tween 20.
# Secondary antibodies used to visualize primary antibodies were added as follows: Anti-rabbit-680 diluted 1:1000 and Anti-mouse-800 diluted 1:1000 both in Licor block+0.05% TweeN2O, and were incubated for 1 hour at room temperature. The plates were washed with PBS+0.05% Tween 20. A 100 μL aliquot of PBS was added to each well and the plates were read on a Li-Cor Odyssey CLX plate reader.
# The phospho-ERK (Thr202/Tyr204 signal was normalized to the GAPDH signal for each well and percent of DMSO control values were calculated. IC50 values were generated using a 4-parameter fit of the dose response curve
row,Compound,IC50 [nM]
1,"Fc1cccc(-c2ncc3c(N4C[C@H]5CC[C@@H](C4)N5)nc(OCC45CCCN4CCC5)nc3c2F)c1C(F)(F)F [Example 292, 4-((1R,5S)-3,8-diazabicyclo[3.2.1]octan-3-yl)-8-fluoro-7-(3-fluoro-2-(trifluoromethyl)phenyl)-2-((tetrahydro-1H-pyrrolizin-7a(5H)-yl)methoxy)pyrido[4,3-d]pyrimidine]",1700
2,"N#CC[C@@H]1C[C@@H]2CN(c3nc(OCC45CCCN4CCC5)nc4c(F)c(-c5cc(O)cc6ccccc56)ncc34)C[C@H]1N2 [Example 338, 2-((1R,5S,6S)-3-(8-fluoro-7-(3-hydroxynaphthalen-1-yl)-2-((tetrahydro-1H-pyrrolizin-7a(5H)-yl)methoxy)pyrido[4,3-d]pyrimidin-4-yl)-3,8-diazabicyclo[3.2.1]octan-6-yl)acetonitrile]",> 16700
3,"Fc1c(-c2cccc3cccc(Cl)c23)ncc2c(N3C[C@H]4CC[C@@H](C3)N4)nc(OC[C@]34CCCN3[C@@H](Cn3cccn3)CC4)nc12 [Example 418, 2-((3-((1H-pyrazol-1-yl)methyl)tetrahydro-1H-pyrrolizin-7a(5H)-yl)methoxy)-4-(3,8-diazabicyclo[3.2.1]octan-3-yl)-7-(8-chloronaphthalen-1-yl)-8-fluoropyrido[4,3-d]pyrimidine bis(2,2,2-trifluoroacetate)]",2740
4,"[O-][S+]1CCC(Oc2nc(N3C[C@H]4CC[C@@H](C3)N4)c3cnc(-c4cc(O)cc5ccccc45)c(F)c3n2)CC1 (stereo partly drawn) [Example 82, 4-((4-((1R,5S)-3,8-diazabicyclo[3.2.1]octan-3-yl)-8-fluoro-7-(3-hydroxynaphthalen-1-yl)pyrido[4,3-d]pyrimidin-2-yl)oxy)tetrahydro-2H-thiopyran 1-oxide]",> 16700
5,"C#Cc1cccc2cccc(-c3ncc4c(N5C[C@H]6CC[C@@H](C5)N6)nc(OC[C@]56CCCN5C[C@@H](F)C6)nc4c3F)c12 [Example 205, 4-((1R,5S)-3,8-diazabicyclo[3.2.1]octan-3-yl)-7-(8-ethynylnaphthalen-1-yl)-8-fluoro-2-(((2S,7aR)-2-fluorotetrahydro-1H-pyrrolizin-7a(5H)-yl)methoxy)pyrido[4,3-d]pyrimidine]",242
6,"Fc1c(-c2cccc(Cl)c2Cl)ncc2c(N3C[C@H]4CC[C@@H](C3)N4)nc(OCC34CCCN3CCC4)nc12 [Example 277, 4-((1R,5S)-3,8-diazabicyclo[3.2.1]octan-3-yl)-7-(2,3-dichlorophenyl)-8-fluoro-2-((hexahydro-1H-pyrrolizin-7a-yl)methoxy)pyrido[4,3-d]pyrimidine]",3680
7,"CC(C)c1c(Cl)cccc1-c1ncc2c(N3C[C@H]4CC[C@@H](C3)N4)nc(OCC34CCCN3CCC4)nc2c1F [Example 298, 4-((1R,5S)-3,8-diazabicyclo[3.2.1]octan-3-yl)-7-(3-chloro-2-isopropylphenyl)-8-fluoro-2-((hexahydro-1H-pyrrolizin-7a-yl)methoxy)pyrido[4,3-d]pyrimidine]",1230
8,"Fc1c(-c2cccc(Cl)c2C2CC2)ncc2c(N3CC4CCC(C3)N4)nc(OCC34CCCN3C[C@H](F)C4)nc12 (mixture of isomers) [Example 342, 4-((1R,5S)-3,8-diazabicyclo[3.2.1]octan-3-yl)-7-(3-chloro-2-cyclopropylphenyl)-8-fluoro-2-((2-fluorotetrahydro-1H-pyrrolizin-7a(5H)-yl)methoxy)pyrido[4,3-d]pyrimidine]",1000
9,"Oc1cc(-c2ncc3c(N4C[C@H]5CC[C@@H](C4)N5)nc(OCCc4ccc(F)cn4)nc3c2F)c2ccccc2c1 [Example 102, 4-(4-((1R,5S)-3,8-diazabicyclo[3.2.1]octan-3-yl)-8-fluoro-2-(2-(5-fluoropyridin-2-yl)ethoxy)pyrido[4,3-d]pyrimidin-7-yl)naphthalen-2-ol]",7960
10,"CCc1c(F)ccc2cccc(-c3ncc4c(N5C[C@H]6CC[C@@H](C5)N6)nc(OCC56CCCN5CCC6)nc4c3F)c12 [Example 426, 4-((1R,5S)-3,8-diazabicyclo[3.2.1]octan-3-yl)-7-(8-ethyl-7-fluoronaphthalen-1-yl)-8-fluoro-2-((hexahydro-1H-pyrrolizin-7a-yl)methoxy)pyrido[4,3-d]pyrimidine]",228
11,"CN1CCC[C@H]1COc1nc(N2C[C@H]3CC[C@@H](C2)N3)c2cnc(-c3cccc4cccc(Cl)c34)c(F)c2n1 [Example 132, 4-((1R,5S)-3,8-diazabicyclo[3.2.1]octan-3-yl)-7-(8-chloronaphthalen-1-yl)-8-fluoro-2-(((S)-1-methylpyrrolidin-2-yl)methoxy)pyrido[4,3-d]pyrimidine]",2560
12,"C#Cc1c(F)ccc2cccc(-c3ncc4c(N5C[C@H]6CC[C@@H](C5)N6)nc(OCC56CCCN5CCC6)nc4c3F)c12 [Example 189, 4-((1R,5S)-3,8-diazabicyclo[3.2.1]octan-3-yl)-7-(8-ethynyl-7-fluoronaphthalen-1-yl)-8-fluoro-2-((tetrahydro-1H-pyrrolizin-7a(5H)-yl)methoxy)pyrido[4,3-d]pyrimidine]",24.1
13,"OC[C@@H]1CCN1c1nc(N2C[C@H]3CC[C@@H](C2)N3)c2cnc(-c3cc(O)cc4ccccc34)c(F)c2n1 [Example 121, 4-(4-((1R,5S)-3,8-diazabicyclo[3.2.1]octan-3-yl)-8-fluoro-2-((S)-2-(hydroxymethyl)azetidin-1-yl)pyrido[4,3-d]pyrimidin-7-yl)naphthalen-2-ol 2,2,2-trifluoroacetate]",4080
14,"Oc1cc(-c2ncc3c(N4C[C@H]5CC[C@@H](C4)N5)nc(OCCC(F)(F)F)nc3c2F)c2c(Cl)cccc2c1 [Example 393, 4-(4-((1R,5S)-3,8-diazabicyclo[3.2.1]octan-3-yl)-8-fluoro-2-(3,3,3-trifluoropropoxy)pyrido[4,3-d]pyrimidin-7-yl)-5-chloronaphthalen-2-ol]",7580
15,"Fc1c(-c2cccc(C(F)(F)F)c2C(F)(F)F)ncc2c(N3C[C@H]4CC[C@@H](C3)N4)nc(OCC34CCCN3CCC4)nc12 [Example 197, 4-((1R,5S)-3,8-diazabicyclo[3.2.1]octan-3-yl)-7-(2,3-bis(trifluoromethyl)phenyl)-8-fluoro-2-((tetrahydro-1H-pyrrolizin-7a(5H)-yl)methoxy)pyrido[4,3-d]pyrimidine]",> 16700
16,"Fc1c(-c2cccc3cccc(Cl)c23)ncc2c(N3C[C@H]4CC[C@@H](C3)N4)nc(OCC34CC(F)CN3CC(F)C4)nc12 (stereo partly drawn) [Example 425, 4-((1R,5S)-3,8-diazabicyclo[3.2.1]octan-3-yl)-7-(8-chloronaphthalen-1-yl)-2-((2,6-difluorohexahydro-1H-pyrrolizin-7a-yl)methoxy)-8-fluoropyrido[4,3-d]pyrimidine]",5410
17,"Oc1ccc(OC(F)(F)F)c(-c2ncc3c(N4CC5CCC(C4)N5)nc(OCC45CCCN4C[C@H](F)C5)nc3c2F)c1 (mixture of isomers) [Example 340, 3-(4-((1R,5S)-3,8-diazabicyclo[3.2.1]octan-3-yl)-8-fluoro-2-((2-fluorotetrahydro-1H-pyrrolizin-7a(5H)-yl)methoxy)pyrido[4,3-d]pyrimidin-7-yl)-4-(trifluoromethoxy)phenol]",51.5
18,"Fc1c(-c2cccc3cccc(OC(F)(F)F)c23)ncc2c(N3C[C@H]4CC[C@@H](C3)N4)nc(OCC34CCCN3CCC4)nc12 [Example 345, 4-((1R,5S)-3,8-diazabicyclo[3.2.1]octan-3-yl)-8-fluoro-2-((tetrahydro-1H-pyrrolizin-7a(5H)-yl)methoxy)-7-(8-(trifluoromethoxy)naphthalen-1-yl)pyrido[4,3-d]pyrimidine]",1470
19,"Oc1cc(-c2ncc3c(N4C[C@H]5CC[C@@H](C4)N5)nc(N4CC5(CCOC5)C4)nc3c2F)c2ccccc2c1 [Example 76, 4-(4-((1R,5S)-3,8-diazabicyclo[3.2.1]octan-3-yl)-8-fluoro-2-(6-oxa-2-azaspiro[3.4]octan-2-yl)pyrido[4,3-d]pyrimidin-7-yl)naphthalen-2-ol]",7410
20,"CCN1CCC[C@H]1COc1nc(N2C[C@H]3CC[C@@H](C2)N3)c2cnc(-c3cc(O)cc4ccccc34)c(F)c2n1 [Example 11, 4-(4-((1R,5S)-3,8-diazabicyclo[3.2.1]octan-3-yl)-2-(((S)-1-ethylpyrrolidin-2-yl)methoxy)-8-fluoropyrido[4,3-d]pyrimidin-7-yl)naphthalen-2-ol]",1080
21,"CN1CCC[C@H]1COc1nc(N2C[C@H]3CC[C@@H](C2)N3)c2cnc(-c3cccc4ccc(F)c(Cl)c34)c(F)c2n1 [Example 44, 4-((1R,5S)-3,8-diazabicyclo[3.2.1]octan-3-yl)-7-(8-chloro-7-fluoronaphthalen-1-yl)-8-fluoro-2-(((S)-1-methylpyrrolidin-2-yl)methoxy)pyrido[4,3-d]pyrimidine]",2290
22,"CN1CCC[C@H]1COc1nc(N2C[C@H]3CC[C@@H](C2)N3)c2cnc(-c3cccc4ccc(F)cc34)c(F)c2n1 [Example 19, 4-((1R,5S)-3,8-diazabicyclo[3.2.1]octan-3-yl)-8-fluoro-7-(7-fluoronaphthalen-1-yl)-2-(((S)-1-methylpyrrolidin-2-yl)methoxy)pyrido[4,3-d]pyrimidine]",> 16700
